Results: ChEMBL document CHEMBL4673207, “Recent advances in the discovery of potent and selective HDAC6 inhibitors” (Eur J Med Chem, 2018)

Legend:
[1] = target: T1, Histone deacetylase 2 (Homo sapiens, UniProt Q92769); assay: Inhibition of human HDAC2 using p53 fluorogenic peptide (379 to 382 residues) RHKKAc as substrate by fluorescence-based assay
[2] = target: T2, Protein deacetylase HDAC6 (Homo sapiens, UniProt Q9UBN7); assay: Inhibition of human HDAC6 using p53 fluorogenic peptide (379 to 382 residues) RHKKAc as substrate by fluorescence-based assay
T2 sequence (Q9UBN7 whole entry): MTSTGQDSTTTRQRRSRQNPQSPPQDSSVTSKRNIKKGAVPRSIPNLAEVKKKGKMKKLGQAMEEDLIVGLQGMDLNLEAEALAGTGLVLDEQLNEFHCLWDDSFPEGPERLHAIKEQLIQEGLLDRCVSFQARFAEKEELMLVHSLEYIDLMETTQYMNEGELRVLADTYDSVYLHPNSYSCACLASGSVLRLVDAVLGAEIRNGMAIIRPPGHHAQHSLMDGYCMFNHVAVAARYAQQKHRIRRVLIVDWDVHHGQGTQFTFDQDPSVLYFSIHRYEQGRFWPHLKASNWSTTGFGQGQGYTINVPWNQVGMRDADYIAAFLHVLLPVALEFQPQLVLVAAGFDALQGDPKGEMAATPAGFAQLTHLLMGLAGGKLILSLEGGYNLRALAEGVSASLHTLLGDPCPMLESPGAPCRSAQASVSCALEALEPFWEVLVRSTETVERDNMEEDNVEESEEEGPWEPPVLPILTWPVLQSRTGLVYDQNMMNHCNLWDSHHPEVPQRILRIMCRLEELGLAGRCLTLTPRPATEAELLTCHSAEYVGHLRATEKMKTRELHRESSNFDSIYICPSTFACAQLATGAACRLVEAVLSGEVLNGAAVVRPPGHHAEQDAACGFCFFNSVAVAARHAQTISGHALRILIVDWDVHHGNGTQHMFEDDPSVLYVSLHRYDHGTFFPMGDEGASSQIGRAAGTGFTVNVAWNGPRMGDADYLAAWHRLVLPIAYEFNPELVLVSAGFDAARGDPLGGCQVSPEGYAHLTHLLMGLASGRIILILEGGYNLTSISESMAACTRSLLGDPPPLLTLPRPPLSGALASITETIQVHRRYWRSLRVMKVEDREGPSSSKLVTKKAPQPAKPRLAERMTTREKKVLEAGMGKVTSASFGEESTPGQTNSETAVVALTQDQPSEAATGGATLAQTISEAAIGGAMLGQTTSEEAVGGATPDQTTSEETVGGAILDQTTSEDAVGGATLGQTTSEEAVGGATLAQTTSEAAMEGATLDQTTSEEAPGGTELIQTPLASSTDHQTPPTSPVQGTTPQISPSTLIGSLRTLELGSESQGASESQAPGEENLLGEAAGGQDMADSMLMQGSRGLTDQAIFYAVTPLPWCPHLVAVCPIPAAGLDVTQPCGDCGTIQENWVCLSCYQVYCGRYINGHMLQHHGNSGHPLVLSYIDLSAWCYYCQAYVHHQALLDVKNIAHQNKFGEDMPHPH

[3] = system: A2780; assay: Antiproliferative activity against human A2780 cells by MTT assay; assay type: functional, cell-based
[4] = system: CAL-27; assay: Antiproliferative activity against human Cal-27 cells by MTT assay; assay type: functional, cell-based
[5] = target: T3, Histone deacetylase 4 (Homo sapiens, UniProt P56524); assay: Inhibition of human HDAC4 expressed in sf9 cells using Fluor deLys substrate by fluorescence method
[6] = target: T4, Polyamine deacetylase HDAC10 (Homo sapiens, UniProt Q969S8); assay: Inhibition of N-terminal Flag tagged- human HDAC10 (2 to 631 amino acids) expressed in baculovirus infected Sf9 cells using Fluor deLys substrate by fluorescence method
T4 sequence (Q969S8 whole entry): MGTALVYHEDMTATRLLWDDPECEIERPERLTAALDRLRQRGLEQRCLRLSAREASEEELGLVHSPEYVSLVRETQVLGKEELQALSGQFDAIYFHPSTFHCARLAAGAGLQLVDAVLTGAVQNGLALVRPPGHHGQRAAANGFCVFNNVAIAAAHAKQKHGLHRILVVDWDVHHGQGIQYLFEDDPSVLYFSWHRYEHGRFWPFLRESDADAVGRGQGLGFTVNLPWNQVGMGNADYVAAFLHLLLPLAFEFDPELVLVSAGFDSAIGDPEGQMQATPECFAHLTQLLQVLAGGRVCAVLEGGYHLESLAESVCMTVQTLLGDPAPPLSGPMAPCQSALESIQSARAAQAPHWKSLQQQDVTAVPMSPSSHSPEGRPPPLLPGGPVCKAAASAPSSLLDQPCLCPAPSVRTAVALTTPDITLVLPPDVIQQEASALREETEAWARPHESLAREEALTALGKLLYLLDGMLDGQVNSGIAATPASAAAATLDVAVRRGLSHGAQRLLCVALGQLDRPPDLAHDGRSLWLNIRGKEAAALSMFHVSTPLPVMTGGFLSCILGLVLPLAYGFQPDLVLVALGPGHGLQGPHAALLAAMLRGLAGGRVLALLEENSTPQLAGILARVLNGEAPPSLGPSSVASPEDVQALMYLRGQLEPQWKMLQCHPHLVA

[7] = target: T5, Histone deacetylase 5 (Homo sapiens, UniProt Q9UQL6); assay: Inhibition of human HDAC5 using Fluor deLys substrate by fluorescence method
[8] = target: T1, Histone deacetylase 2; assay: Inhibition of human full-length recombinant HDAC2 using fluorogenic peptide ([…] residues) (RHKK(Ac)) as substrate by fluorescence method
[9] = target: T6, Histone deacetylase 1 (Homo sapiens, UniProt Q13547); assay: Inhibition of human full-length recombinant HDAC1 using p53 fluorogenic peptide ([…] residues) (RHKK(Ac)) as substrate by fluorescence method
[10] = target: T2, Protein deacetylase HDAC6; assay: Inhibition of human full-length recombinant HDAC6 using fluorogenic peptide […] (RHKK(Ac)) as substrate by fluorescence method
[11] = target: Histone deacetylase; assay: Inhibition of HDAC in human HeLa cell extracts using Fluor de lys as substrate incubated for 30 mins by fluorimetric analysis
[12] = system: MCF7; assay: Antiproliferative activity against human MCF7 incubated for 72 hrs by MTT assay; assay type: functional
[13] = system: HEK293T; assay: Selectivity ratio of IC50 for Flag-tagged HDAC1 (unknown origin) expressed in 293T cells to IC50 for Flag-tagged HDAC6 (unknown origin) expressed in 293T cells; assay type: cell-based; settings: Homo sapiens
[14] = target: T2, Protein deacetylase HDAC6; assay: Inhibition of Flag-tagged HDAC6 (unknown origin) expressed in 293T cells using ZMAL as substrate incubated for 180 mins by fluorescence method; set-up: species or system HEK293T
[15] = target: T6, Histone deacetylase 1; assay: Inhibition of Flag-tagged HDAC1 (unknown origin) expressed in 293T cells using ZMAL as substrate incubated for 180 mins by fluorescence method; set-up: species or system HEK293T
[16] = target: T7, Histone deacetylase 3 (Homo sapiens, UniProt O15379); assay: Inhibition of human HDAC3 using fluorogenic HDAC substrate incubated for 10 mins by spectrophotometric method
[17] = target: T8, Histone deacetylase 9 (Homo sapiens, UniProt Q9UKV0); assay: Inhibition of human HDAC9 using fluorogenic HDAC substrate incubated for 30 mins by fluorimetry
[18] = target: T9, Histone deacetylase 8 (Homo sapiens, UniProt Q9BY41); assay: Inhibition of human HDAC8 using fluorogenic HDAC substrate incubated for 60 mins by fluorimetry
[19] = target: T2, Protein deacetylase HDAC6; assay: Inhibition of human HDAC6 using fluorogenic HDAC substrate incubated for 30 mins by fluorimetry
[20] = target: T3, Histone deacetylase 4; assay: Inhibition of human HDAC4 using fluorogenic HDAC substrate incubated for 30 mins by fluorimetry
[21] = target: T5, Histone deacetylase 5; assay: Inhibition of human HDAC5 using fluorogenic HDAC substrate incubated for 30 mins by fluorimetry
[22] = target: T4, Polyamine deacetylase HDAC10; assay: Inhibition of human HDAC10 using fluorogenic HDAC substrate incubated for 45 mins by fluorimetry
[23] = target: T6, Histone deacetylase 1; assay: Inhibition of human HDAC1 using fluorogenic HDAC substrate incubated for 15 mins by fluorimetry
[24] = target: T10, Histone deacetylase 11 (Homo sapiens, UniProt Q96DB2); assay: Inhibition of human HDAC11 using fluorogenic HDAC substrate incubated for 30 mins by fluorescence method
[25] = target: T1, Histone deacetylase 2; assay: Inhibition of human HDAC2 using fluorogenic HDAC substrate incubated for 15 mins by fluorimetry
[26] = target: T7, Histone deacetylase 3; assay: Inhibition of HDAC3 (unknown origin)
[27] = target: T8, Histone deacetylase 9; assay: Inhibition of HDAC9 (unknown origin)
[28] = target: T1, Histone deacetylase 2; assay: Inhibition of HDAC2 (unknown origin)
[29] = target: T5, Histone deacetylase 5; assay: Inhibition of HDAC5 (unknown origin)
[30] = target: T10, Histone deacetylase 11; assay: Inhibition of HDAC11 (unknown origin)
[31] = target: T6, Histone deacetylase 1; assay: Inhibition of HDAC1 (unknown origin)
[32] = target: T4, Polyamine deacetylase HDAC10; assay: Inhibition of HDAC10 (unknown origin)
[33] = target: T3, Histone deacetylase 4; assay: Inhibition of HDAC4 (unknown origin)
[34] = target: T2, Protein deacetylase HDAC6; assay: Inhibition of HDAC6 (unknown origin)
[35] = target: T9, Histone deacetylase 8; assay: Inhibition of HDAC8 (unknown origin)
[36] = species: Homo sapiens; assay: Selectivity ratio of IC50 for human HDAC3 to IC50 for human HDAC6
[37] = species: Homo sapiens; assay: Selectivity ratio of IC50 for human HDAC2 to IC50 for human HDAC6
[38] = species: Homo sapiens; assay: Selectivity ratio of IC50 for human HDAC8 to IC50 for human HDAC6
[39] = species: Homo sapiens; assay: Selectivity ratio of IC50 for human HDAC7 to IC50 for human HDAC6
[40] = species: Homo sapiens; assay: Selectivity ratio of IC50 for human HDAC10 to IC50 for human HDAC6
[41] = species: Homo sapiens; assay: Selectivity ratio of IC50 for human HDAC9 to IC50 for human HDAC6
[42] = species: Homo sapiens; assay: Selectivity ratio of IC50 for human HDAC11 to IC50 for human HDAC6
[43] = species: Homo sapiens; assay: Selectivity ratio of IC50 for human HDAC5 to IC50 for human HDAC6
[44] = species: Homo sapiens; assay: Selectivity ratio of IC50 for human HDAC1 to IC50 for human HDAC6
[45] = species: Homo sapiens; assay: Selectivity ratio of IC50 for human HDAC4 to IC50 for human HDAC6

T1 sequence (Q92769 whole entry, the tested form may be a part): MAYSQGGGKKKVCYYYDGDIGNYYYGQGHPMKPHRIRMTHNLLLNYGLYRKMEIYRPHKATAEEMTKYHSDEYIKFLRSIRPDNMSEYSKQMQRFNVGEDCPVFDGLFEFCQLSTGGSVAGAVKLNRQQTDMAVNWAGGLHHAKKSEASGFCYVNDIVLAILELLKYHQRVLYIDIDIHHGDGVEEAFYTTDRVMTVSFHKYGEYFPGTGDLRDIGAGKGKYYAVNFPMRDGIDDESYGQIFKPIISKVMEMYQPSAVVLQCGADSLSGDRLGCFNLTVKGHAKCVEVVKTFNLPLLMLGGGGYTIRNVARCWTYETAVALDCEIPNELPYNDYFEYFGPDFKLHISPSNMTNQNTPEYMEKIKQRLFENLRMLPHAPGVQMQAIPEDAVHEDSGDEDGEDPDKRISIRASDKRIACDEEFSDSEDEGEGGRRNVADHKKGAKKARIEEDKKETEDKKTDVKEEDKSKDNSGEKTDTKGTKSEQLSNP
T5 sequence (Q9UQL6 whole entry): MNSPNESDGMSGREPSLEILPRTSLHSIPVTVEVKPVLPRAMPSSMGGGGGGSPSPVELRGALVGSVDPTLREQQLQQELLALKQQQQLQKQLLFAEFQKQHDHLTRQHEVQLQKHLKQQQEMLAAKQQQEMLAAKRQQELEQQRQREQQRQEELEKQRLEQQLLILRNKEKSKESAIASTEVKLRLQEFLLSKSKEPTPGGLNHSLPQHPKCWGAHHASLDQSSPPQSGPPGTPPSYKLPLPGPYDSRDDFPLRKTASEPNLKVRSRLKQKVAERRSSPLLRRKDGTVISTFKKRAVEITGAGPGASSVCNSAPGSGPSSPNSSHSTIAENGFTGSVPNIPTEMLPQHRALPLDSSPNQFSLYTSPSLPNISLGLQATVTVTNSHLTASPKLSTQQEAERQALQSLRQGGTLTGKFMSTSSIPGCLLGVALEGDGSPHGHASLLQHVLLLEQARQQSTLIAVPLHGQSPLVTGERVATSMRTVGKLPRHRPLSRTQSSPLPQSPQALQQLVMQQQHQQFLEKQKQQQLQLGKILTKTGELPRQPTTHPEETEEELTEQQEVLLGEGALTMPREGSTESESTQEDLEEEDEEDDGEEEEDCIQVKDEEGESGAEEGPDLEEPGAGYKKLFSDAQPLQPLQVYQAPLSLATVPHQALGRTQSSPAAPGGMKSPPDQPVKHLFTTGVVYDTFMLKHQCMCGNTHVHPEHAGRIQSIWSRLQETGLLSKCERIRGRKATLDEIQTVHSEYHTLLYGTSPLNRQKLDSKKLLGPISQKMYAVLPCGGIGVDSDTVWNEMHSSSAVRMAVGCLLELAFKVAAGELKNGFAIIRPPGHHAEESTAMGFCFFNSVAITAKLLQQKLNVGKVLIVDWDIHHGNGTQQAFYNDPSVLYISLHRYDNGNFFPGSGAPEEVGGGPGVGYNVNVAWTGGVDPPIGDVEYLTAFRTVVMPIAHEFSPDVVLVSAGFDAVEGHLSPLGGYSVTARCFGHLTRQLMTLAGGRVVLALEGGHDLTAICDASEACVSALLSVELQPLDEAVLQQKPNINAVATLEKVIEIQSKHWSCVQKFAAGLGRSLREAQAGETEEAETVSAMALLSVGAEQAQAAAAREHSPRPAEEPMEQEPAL
T3 sequence (P56524 whole entry, the tested form may be a part): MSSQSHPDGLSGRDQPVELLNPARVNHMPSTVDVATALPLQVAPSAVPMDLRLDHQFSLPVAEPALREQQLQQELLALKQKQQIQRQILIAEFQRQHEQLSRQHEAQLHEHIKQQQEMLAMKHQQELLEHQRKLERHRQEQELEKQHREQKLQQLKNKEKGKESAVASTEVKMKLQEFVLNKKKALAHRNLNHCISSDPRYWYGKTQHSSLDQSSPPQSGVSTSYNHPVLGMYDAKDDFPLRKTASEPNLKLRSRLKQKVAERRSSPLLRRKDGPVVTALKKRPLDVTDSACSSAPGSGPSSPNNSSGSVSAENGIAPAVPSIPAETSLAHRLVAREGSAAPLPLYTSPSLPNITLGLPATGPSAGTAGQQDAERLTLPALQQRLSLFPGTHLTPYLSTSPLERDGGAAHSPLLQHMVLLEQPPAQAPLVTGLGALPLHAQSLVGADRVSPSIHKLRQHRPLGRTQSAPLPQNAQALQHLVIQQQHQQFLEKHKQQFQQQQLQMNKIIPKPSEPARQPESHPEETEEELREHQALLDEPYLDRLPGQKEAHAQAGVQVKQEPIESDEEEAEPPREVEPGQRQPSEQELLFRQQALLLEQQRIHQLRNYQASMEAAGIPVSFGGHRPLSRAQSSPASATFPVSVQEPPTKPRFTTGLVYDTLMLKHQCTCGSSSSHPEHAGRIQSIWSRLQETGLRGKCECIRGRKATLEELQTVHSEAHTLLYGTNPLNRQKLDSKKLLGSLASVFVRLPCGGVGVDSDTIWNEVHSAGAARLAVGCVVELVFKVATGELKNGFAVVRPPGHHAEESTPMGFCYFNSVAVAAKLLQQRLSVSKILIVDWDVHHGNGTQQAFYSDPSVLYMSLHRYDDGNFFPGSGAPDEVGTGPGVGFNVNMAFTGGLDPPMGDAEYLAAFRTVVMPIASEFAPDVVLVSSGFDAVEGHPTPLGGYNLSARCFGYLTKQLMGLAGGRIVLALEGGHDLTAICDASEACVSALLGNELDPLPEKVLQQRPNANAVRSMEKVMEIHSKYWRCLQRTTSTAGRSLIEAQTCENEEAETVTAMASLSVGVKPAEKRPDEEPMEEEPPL
T6 sequence (Q13547 whole entry): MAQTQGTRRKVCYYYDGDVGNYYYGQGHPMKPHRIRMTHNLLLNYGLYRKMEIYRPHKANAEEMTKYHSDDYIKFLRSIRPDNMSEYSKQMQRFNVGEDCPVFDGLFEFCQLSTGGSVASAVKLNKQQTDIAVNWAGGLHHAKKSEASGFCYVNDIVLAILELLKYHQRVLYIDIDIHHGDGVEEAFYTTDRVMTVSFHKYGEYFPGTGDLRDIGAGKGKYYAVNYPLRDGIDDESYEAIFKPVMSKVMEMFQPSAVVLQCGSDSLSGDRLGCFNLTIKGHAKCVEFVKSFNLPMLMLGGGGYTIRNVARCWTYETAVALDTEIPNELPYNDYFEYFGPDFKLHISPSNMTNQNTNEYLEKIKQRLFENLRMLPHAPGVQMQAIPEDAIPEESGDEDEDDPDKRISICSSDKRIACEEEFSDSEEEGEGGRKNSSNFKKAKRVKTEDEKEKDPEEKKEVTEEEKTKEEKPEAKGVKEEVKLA
T9 sequence (Q9BY41 whole entry): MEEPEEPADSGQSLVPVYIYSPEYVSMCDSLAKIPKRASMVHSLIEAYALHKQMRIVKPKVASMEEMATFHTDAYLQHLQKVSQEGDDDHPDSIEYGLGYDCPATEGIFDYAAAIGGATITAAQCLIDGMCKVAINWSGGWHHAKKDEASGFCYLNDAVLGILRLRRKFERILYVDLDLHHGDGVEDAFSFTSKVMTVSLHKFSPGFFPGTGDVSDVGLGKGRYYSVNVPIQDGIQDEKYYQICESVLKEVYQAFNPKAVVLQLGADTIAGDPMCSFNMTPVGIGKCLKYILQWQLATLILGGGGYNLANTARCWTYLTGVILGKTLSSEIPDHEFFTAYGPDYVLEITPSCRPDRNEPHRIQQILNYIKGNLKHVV
T7 sequence (O15379 whole entry): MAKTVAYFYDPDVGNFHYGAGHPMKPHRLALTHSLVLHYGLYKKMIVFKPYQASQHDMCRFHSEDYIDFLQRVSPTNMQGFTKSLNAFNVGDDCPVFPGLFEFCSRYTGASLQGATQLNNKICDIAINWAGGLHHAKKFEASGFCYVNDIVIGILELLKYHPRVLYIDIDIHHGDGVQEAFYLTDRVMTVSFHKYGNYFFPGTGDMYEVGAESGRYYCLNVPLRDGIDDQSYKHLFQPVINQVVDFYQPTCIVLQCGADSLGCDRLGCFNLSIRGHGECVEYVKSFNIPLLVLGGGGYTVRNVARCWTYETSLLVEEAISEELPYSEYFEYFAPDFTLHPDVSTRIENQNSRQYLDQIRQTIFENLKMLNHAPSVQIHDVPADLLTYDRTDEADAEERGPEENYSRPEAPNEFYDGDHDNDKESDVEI
T10 sequence (Q96DB2 whole entry): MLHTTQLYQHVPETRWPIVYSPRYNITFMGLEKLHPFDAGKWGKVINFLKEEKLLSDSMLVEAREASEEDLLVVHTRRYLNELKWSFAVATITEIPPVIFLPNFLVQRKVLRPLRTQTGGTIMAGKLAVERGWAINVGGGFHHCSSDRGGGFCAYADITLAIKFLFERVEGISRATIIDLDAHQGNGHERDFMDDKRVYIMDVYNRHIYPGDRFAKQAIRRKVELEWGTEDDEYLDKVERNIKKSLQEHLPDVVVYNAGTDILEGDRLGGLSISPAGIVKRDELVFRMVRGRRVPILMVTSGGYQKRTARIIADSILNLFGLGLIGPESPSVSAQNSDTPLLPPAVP

## CN(C)c1ccc(C(=O)N(CC(=O)NC2CCCCC2)Cc2ccc(C(=O)NO)cc2)cc1
[1]
  IC50: 0.2 µM
[2]
  IC50: 0.00159 µM
[3]
  IC50: 0.34 µM
[4]
  IC50: 2.04 µM

## CN(C)c1cccc2c(S(=O)(=O)NCCCCCC(=O)NO)cccc12
[5]
  IC50: 0.33 µM
[6]
  IC50: 0.42 µM
[7]
  IC50: 0.4 µM

## O=C(/C=C/c1cccn(CCCc2ccc3ccccc3c2)c1=O)NO
[8]
  IC50: 0.128 µM
[9]
  IC50: 0.0194 µM
[10]
  IC50: 0.00246 µM
[11]
  IC50: 0.07 µM

## COC(=O)[C@H](Cc1ccccn1)NC(=O)CCCCCCC(=O)NO
[12]
  GI50: 104 µM
[13]
  Ratio IC50: 25
[14]
  IC50: 3.97 µM
[15]
  IC50: 100 µM

## O=C(NO)c1ccc(Cn2c3c(c4ccccc42)S(=O)(=O)CC3)cc1
[16]
  IC50: > 5 µM
[17]
  IC50: 0.1 µM
[18]
  IC50: 1 µM
[19]
  IC50: 0.0082 µM
[20]
  IC50: 1 µM
[21]
  IC50: 1 µM
[22]
  IC50: > 5 µM
[23]
  IC50: > 5 µM
[24]
  IC50: > 5 µM
[25]
  IC50: > 5 µM

## O=C(NO)c1ccc(CN2c3ccccc3S(=O)(=O)C[C@@H]3CCCC[C@@H]32)cc1
[26]
  IC50: > 8 µM
[27]
  IC50: > 8 µM
[28]
  IC50: > 8 µM
[29]
  IC50: > 8 µM
[30]
  IC50: 2.4 µM
[31]
  IC50: > 8 µM
[32]
  IC50: > 8 µM
[33]
  IC50: > 8 µM
[34]
  IC50: 0.008 µM
[35]
  IC50: 1.1 µM

## O=C(NO)c1ccc(NCc2csc3ccccc23)cc1
[36]
  Ratio IC50: > 100
[37]
  Ratio IC50: > 100
[38]
  Ratio IC50: > 100
[39]
  Ratio IC50: > 100
[40]
  Ratio IC50: > 100
[41]
  Ratio IC50: > 100
[42]
  Ratio IC50: > 100
[43]
  Ratio IC50: > 100
[44]
  Ratio IC50: > 100
[45]
  Ratio IC50: > 100
